Experimental data: US9113629B2, “4-amino-6-(4-substituted-phenyl)-picolinates and 6-amino-2-(4-substituted-phenyl)-pyrimidine-4-carboxylates and their use as herbicides” (DOW AGROSCIENCES LLC, priority 2013, dated 2015)
Like-named read-outs stand apart in the source and are kept apart here.

Assays:
[1] = tested on: Key Grass and Sedge Weeds as well as Grass Crops; assay: Post-emergent Test II herbicidal activity (Table 6); assay type: in vivo; details: post-emergence, 336 h; for pest or weed control at 140 g/ha: application rate 140 g ai/ha; for pest or weed control at 70 g/ha: application rate 70 g ai/ha
How it was run: (§1)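 Greenhouse-grown plants at first or second true leaf stage were sprayed post-emergence with compound in acetone/DMSO-based aqueous spray containing crop oil concentrate and surfactant, at 187 L/ha, highest rate plus ½× to 1/16× dilutions. After 14 d, injury was scored visually versus untreated plants, 0 (none) to 100% (complete kill).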

[2] = tested on: Key Broadleaf Weed and Crop Species; assay: Post-emergent Test II herbicidal activity (Table 5); assay type: in vivo; details: post-emergence, 336 h, post-emergent, 14 days after application; for pest or weed control at 140 g/ha: 140 g ai/ha; for pest or weed control at 70 g/ha: 70 g ai/ha
How it was run: as §1

[3] = CYPES: yellow nutsedge (Cyperus esculentus), read-out: Visual Growth Reduction (%) 14 Days After Application, CYPES
[4] = DIGSA: crabgrass (Digitaria sanguinalis), read-out: Visual Growth Reduction (%) 14 Days After Application, DIGSA
[5] = ECHCG: barnyardgrass (Echinochloa crus-galli), read-out: Visual Growth Reduction (%) 14 Days After Application, ECHCG
[6] = ORYSA: rice (Oryza sativa), read-out: Visual Growth Reduction (%) 14 Days After Application, ORYSA
[7] = SETFA: giant foxtail (Setaria faberi), read-out: Visual Growth Reduction (%) 14 Days After Application, SETFA
[8] = SORVU: grain sorghum (Sorghum vulgare), read-out: Visual Growth Reduction (%) 14 Days After Application, SORVU
[9] = ZEAMX: maize, corn (Zea mays), read-out: Visual Growth Reduction (%) 14 Days After Application, ZEAMX
[10] = ABUTH: velvetleaf (Abutilon theophrasti), read-out: Visual Growth Reduction (%) 14 Days After Application ABUTH
[11] = BRSNN: oilseed-rape, canola (Brassica napus), read-out: Visual Growth Reduction (%) 14 Days After Application BRSNN
[12] = CHEAL: lambsquarters (Chenopodium album), read-out: Visual Growth Reduction (%) 14 Days After Application CHEAL
[13] = EPHHL: wild poinsettia (Euphorbia heterophylla), read-out: Visual Growth Reduction (%) 14 Days After Application EPHHL
[14] = HELAN: sunflower (Helianthus annuus), read-out: Visual Growth Reduction (%) 14 Days After Application HELAN
[15] = VIOTR: wild pansy (Viola tricolor), read-out: Visual Growth Reduction (%) 14 Days After Application VIOTR
[16] = TRZSS (wheat, Triticum aestivum), read-out: Visual Growth Reduction (%) 14 Days After Application, TRZSS

melting point [°C]	Compound	pest or weed control at 140 g/ha [1, 3] [%]	pest or weed control at 140 g/ha [1, 4] [%]	pest or weed control at 140 g/ha [1, 5] [%]	pest or weed control at 140 g/ha [1, 6] [%]	pest or weed control at 140 g/ha [1, 7] [%]	pest or weed control at 140 g/ha [1, 8] [%]	pest or weed control at 140 g/ha [1, 9] [%]	pest or weed control at 140 g/ha [2, 10] [%]	pest or weed control at 140 g/ha [2, 11] [%]	pest or weed control at 140 g/ha [2, 12] [%]	pest or weed control at 140 g/ha [2, 13] [%]	pest or weed control at 140 g/ha [2, 14] [%]	pest or weed control at 140 g/ha [2, 15] [%]	further results
170.4 to 172.1	Nc1cc(-c2ccc(OC(F)F)cc2)nc(C(=O)O)c1Cl [Compound 10]	0 to 29	75 to 84	85 to 94	0 to 29	95 to 100	75 to 84	60 to 74	95 to 100	60 to 74	75 to 84	95 to 100	85 to 94	0 to 29	pest or weed control at 140 g/ha ([1]; Triticum aestivum, TRZSS (wheat), read-out: Visual Growth Reduction (%) 14 Days After Application, TRZSS): 60 to 74%; pest or weed control at 140 g/ha ([2]; AMARE: redroot pigweed (Amaranthus retroflexus), read-out: Visual Growth Reduction (%) 14 Days After Application AMARE): 95 to 100%
171 to 172	Cc1c(-c2ccc(I)c(F)c2)nc(C(=O)O)c(Cl)c1N [Compound 87, 4-Amino-3-chloro-6-(3-fluoro-4-iodophenyl)-5-methylpicolinic acid]	45 to 59	60 to 74	75 to 84	0 to 29	75 to 84	60 to 74	60 to 74	85 to 94	95 to 100	85 to 94	0 to 29	85 to 94	85 to 94	pest or weed control at 70 g/ha [1, 3]: 0 to 29%; pest or weed control at 70 g/ha [1, 4]: 60 to 74%; pest or weed control at 70 g/ha [1, 5]: 75 to 84%; pest or weed control at 70 g/ha [1, 6]: 0 to 29%; pest or weed control at 70 g/ha [1, 7]: 60 to 74%; pest or weed control at 70 g/ha [1, 8]: 60 to 74%; pest or weed control at 70 g/ha [1, 16]: 60 to 74%; pest or weed control at 140 g/ha [1, 16]: 60 to 74%; pest or weed control at 70 g/ha [1, 9]: 60 to 74%; pest or weed control at 70 g/ha [2, 10]: 85 to 94%; pest or weed control at 70 g/ha [2, 11]: 95 to 100%; pest or weed control at 70 g/ha [2, 12]: 85 to 94%; pest or weed control at 70 g/ha [2, 13]: 0 to 29%; pest or weed control at 70 g/ha [2, 14]: 85 to 94%; pest or weed control at 70 g/ha [2, 15]: 60 to 74%
